Ends that are not written are not given here.
Key:
PAR-2 receptor = molecular target: T1, PAR-2 receptor (Homo sapiens, UniProt P55085); test: Calcium imaging, response to the PAR-2 activating peptide (selectivity control); format: cell-based; settings: PAR-2 AP 100 µM; antagonist 10 µM
T1 construct: endogenous in cells
T1 sequence (P55085 26-397): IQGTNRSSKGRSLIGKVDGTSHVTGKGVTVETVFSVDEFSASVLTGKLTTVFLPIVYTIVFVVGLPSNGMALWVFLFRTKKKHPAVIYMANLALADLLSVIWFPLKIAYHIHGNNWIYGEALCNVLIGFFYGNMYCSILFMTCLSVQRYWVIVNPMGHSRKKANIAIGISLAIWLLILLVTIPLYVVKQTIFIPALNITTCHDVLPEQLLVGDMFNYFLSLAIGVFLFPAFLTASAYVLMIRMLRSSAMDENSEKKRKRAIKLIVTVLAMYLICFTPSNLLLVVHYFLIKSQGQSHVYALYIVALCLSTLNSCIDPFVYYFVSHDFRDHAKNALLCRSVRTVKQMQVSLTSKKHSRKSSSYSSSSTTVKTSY
Description: (§1) For calcium fluorescence measurements, cells were incubated with 5 µM Fura-2AM ester (Alexis Biochemicals) for 40 minutes at 37°C. Intracellular calcium levels were measured and recorded with a dynamic image analysis system (Laboratory Automation 2.0; RC Software). Fluorescence was measured during excitation at 340 and 380 nm, and after correction for the individual background fluorescence signals, the ratio of the fluorescence at both excitation wavelengths (Ratio340/380) was monitored. Experiments were performed using buffer solution containing (in mM): 150 NaCl, 6 KCl, 1 MgCl2, 1.5 CaCl2, 10 glucose, 10 HEPES at pH 7.4. Cells were stimulated with cinnamaldehyde (0.1–3000 µM), acrolein (0.1–3000 µM), CSE (0.001–0.5 OD), capsaicin (1 µM) and the activating peptide (SLIGKV-NH2) of the human PAR-2 receptor (hPAR-2 AP; 100 µM), or their respective vehicles (0.3% DMSO,aqueous buffer or 1% ethanol). HC-030031 and AP18 vehicles (used in all the in vitro experiments) were 3% DMSO and 1% DMSO, respectively. Results are expressed as the increase of Ratio340/380 over the baseline normalized to the maximum effect induced by ionomycin (5 µM) added at the end of the experiment.

[1] = test system: IL-8 release from SAEC, NHLF and HBSMC; test: IL-8 release from human airway/lung cells in primary culture, ELISA; format: cell-based; settings: for effect of antagonist on CSE-evoked IL-8 release / effect of antagonist on IL-8 release induced by IL-1β or TNF-α / effect of antagonist on acrolein-evoked IL-8 release: HC-030031 30 µM, AP18 10 µM; for IL-8 release: overnight exposure
Description: For IL-8 ELISA assays, HBSMC, SAEC, and NHLF were seeded in complete culture medium in 48-well plates, grown to ∼80–90% confluence, and incubated overnight in serum-free medium before treatments. All the treatments were performed in serum free medium. Cells were pretreated with the selective TRPA1 antagonists, HC-030031 and AP18, or their vehicles, for 30–60 min before treatment with freshly prepared acrolein, CSE, TNF-α and IL-1β for 18 hours at 37°C with 5% CO2. Subsequently, supernatants were collected and stored at −80°C for ELISA assay. Human IL-8 was measured using a paired antibody quantitative ELISA kit (Invitrogen) (detection limit: 5 pg/ml). The assays were performed according to the manufacturer's instructions. Vitality assay method (MTT reduction assay) is available online as (Text S1).

TRPA1 = molecular target: T2, TRPA1 (Homo sapiens, UniProt O75762); test: Calcium imaging (Fura-2) of TRPA1 agonist responses in human airway/lung cells; format: cell-based; settings: for effect of antagonist on calcium response evoked by CNM, ACR or CSE: A549 and IMR90; for effect of antagonist on calcium response evoked by CNM, ACR or CSE / effect of antagonist on calcium responses to CNM, ACR and CSE: antagonist 10 µM; for EC50: intracellular calcium response
T2 construct: cultured human airway cells, including fibroblasts, epithelial and smooth muscle cells express functional TRPA1 channels; endogenous in cells; host or cells: SAEC, NHLF, HBSMC (Lonza, primary); A549, IMR90 (ATCC)
Description: Human small airway epithelial cells (SAEC), normal human lung fibroblasts (NHLF) and human bronchial smooth muscle cells (HBSMC) were purchased from Lonza. Human alveolar type II epithelium-like adherent cell line (A549) and human lung embryonic fibroblast (IMR90) were purchased from American Type Culture Collection (Manassas, VA). SAEC and NHLF were cultured respectively in SAGM and FBM medium (Lonza) according to the manufacturer's instructions. IMR90 and HBSMC were cultured in DMEM supplemented with 10% FBS, 2 mM glutamine, 100 U penicillin and 100 µg/ml streptomycin (Sigma-Aldrich), and A549 were cultured in RPMI supplemented with 10% FBS, 2 mM glutamine, 100 U penicillin, 100 µg/ml streptomycin and 1 mM HEPES (Sigma-Aldrich). All cells were cultured in an atmosphere of 95% air and 5% CO2 at 37°C.
CSE was generated as previously reported. Briefly, aqueous CSE was obtained from the combustion of four cigarettes (Marlboro Red, 12 mg of tar, 0.9 mg of nicotine each) bubbled through 50 ml of buffer and subsequently filtered through a 0.2-µm pore filter (Millipore). To ensure reproducibility among different CSE batches, the absorbance (optical density; OD) measured at 320 nm was used as a measure of the “strength” of the extract. Dilutions were made with buffer to obtain the desired absorbance. The CSE was freshly prepared on the day of the experiment and used immediately after preparation.
as §1

[2] = test system: C57BL/6 mouse trachea and bronchi; test: Plasma protein extravasation (Evans blue dye) after intratracheal instillation; format: in vivo; settings: C57BL/6 mice; for plasma protein extravasation (PPE) after instillation into the tracheal lumen: i.t. 30 µl, acrolein 5 mM, CSE 1 OD, capsaicin 100 µM, SP 25 nM; for effect on acrolein (5 mM, i.t.)- and CSE (1 OD, i.t.)-evoked increase in PPE / effect on SP (25 nM)- and capsaicin (100 µM)-evoked Evans blue dye extravasation (PPE): L-733,060 2 µmol/kg i.v.; for effect on acrolein (5 mM, i.t.)- and CSE (1 OD, i.t.)-evoked increase in PPE: CPZ 30 mg/kg i.p., HC 300 mg/kg i.g.; for effect on SP (25 nM)- and capsaicin (100 µM)-evoked Evans blue dye extravasation (PPE): capsazepine 30 mg/kg i.p., HC-030031 300 mg/kg i.g.
Description: (§2) To defunctionalize/desensitize TRPV1 expressing primary sensory neurons, resiniferatoxin (RTX) was administered to C57BL/6 mice, as previously described, [40]. Briefly, mice were treated subcutaneously (s.c.) with a single injection of RTX (50 µg/kg) or its vehicle (10% ethanol and 10% tween 80 in isotonic saline) into the scruff of the neck under a light ether anesthesia to avoid unnecessary pain. Experiments were carried out 7 days after RTX treatment when responses to both TRPV1 and TRPA1 agonists in the treated mice were abolished, [40].
Anesthetized (sodium pentobarbital, 50 mg/kg i.p.) C57BL/6 mice received Evans blue dye (30 mg/kg i.v.), 1 min before intratracheal (i.t) instillation (30 µl) of acrolein (5 mM), capsaicin (100 µM), SP (25 nM), CSE (1 OD) or their vehicles (isotonic saline, 1% ethanol in isotonic saline and isotonic saline). […] The tachykinin NK1 receptor antagonist, L-733,060 (2 µmol/kg i.v.; Tocris) or its vehicle were administered 15 min before the stimulus. The TRPV1 selective antagonist, capsazepine, (30 mg/kg i.p.) or its vehicle (2.5% DMSO in isotonic saline) and intragastric (i.g.) TRPA1 selective antagonist, HC-030031 (300 mg/kg i.g.) or its vehicle were administered 30 and 60 min before the stimulus, respectively. In another set of experiments ACR (5 mM, i.t.), or its vehicle, has been administered in C57BL/6 mice desensitized to RTX (50 µg/kg; s.c.). Animals were euthanized 15 min after treatment and transcardially perfused with 0.9% isotonic saline solution. The extravasated dye was extracted from mouse trachea and bronchi by overnight incubation in formamide and assayed by spectrophotometry at 620 nm, as reported previously.

[3] = test system: C57BL/6 mice, Trpa1+/+ or Trpa1-/- mice; test: KC (CXCL-1) release in bronchoalveolar lavage fluid, ELISA; format: in vivo, mouse; settings: for KC in BAL 24 hours after intratracheal instillation: i.t. 30 µl, acrolein 5 mM, CSE 1 OD, capsaicin 100 µM, SP 25 nM; for effect of pretreatment on KC release evoked by acrolein or CSE: HC-030031 300 mg/kg i.g., L-733,060 2 µmol/kg i.v.
Description: as §2
Trpa1^+/+ or Trpa1^−/− B6129P mice (5 per group) were exposed acutely to the cigarette smoke (CS) produced with commercial cigarettes (Marlboro Red, 12 mg of tar, 0.9 mg of nicotine each), by using a “nose-only” exposure unit. The smoke produced by cigarette burning was introduced into the exposure chamber (inner volume = 11.61 l) with the airflow generated by a mechanical ventilator (7025 Rodent Ventilator, Ugo Basile) at a rate of 250 ml/min [58]. A second mechanical ventilator was used to provide room air for dilution (1∶8) of the smoke stream. Mice were exposed to the smoke of 5 cigarettes per exposure period, twice daily, for 3 consecutive days, and sacrificed 24 hours later. Genotype-, age-, strain- and sex-matched control animals were exposed to air only in the same manner for the same duration of time. Anesthetized C57BL/6, and Trpa1^+/+ or Trpa1^−/− (C57BL/6) mice were intratracheally administered with (30 µl) acrolein (5 mM), capsaicin (100 µM), SP (25 nM) and CSE (1 OD) or their vehicles (isotonic saline, 1% ethanol in isotonic saline and isotonic saline) and sacrificed 24 hours later. The NK1 receptor antagonist, L-733,060 (2 µmol/kg i.v.; Tocris) or its vehicle (isotonic saline) were administered 15 min before the stimulus, and i.g. HC-030031 (300 mg/kg) or its vehicle (0.5% CMC in isotonic saline 0.9%) were administered 1 hour before the stimulus. In another set of experiments ACR (5 mM, i.t.), or its vehicle, has been administered in C57BL/6 mice desensitized to RTX (50 µg/kg; s.c.). Animals were sacrificed 24 hours after the last exposure/treatment with an overdose of anesthetic followed by exsanguination, and the lungs were lavaged using a cannula inserted into the trachea and instilling 1 ml of Hank's Buffer added with HEPES 10 mM and EDTA 10 mM three times. […] BAL were centrifuged at 200× g at 4°C for 10 min, and the cell-free supernatants were stored at −80°C for cytokine determination. Frozen cell-free BAL was analyzed for keratinocyte chemoattractant (CXCL-1/KC, the murine analogue of IL-8) release by using a commercial ELISA-assay (Invitrogen).

TRPV1 = test: Calcium imaging, response to the TRPV1 agonist capsaicin in human airway/lung cells; format: cell-based; settings: 1 µM; SAEC, A549, NHLF, IMR90 and HBSMC; data not shown

T2 sequence (O75762 whole entry): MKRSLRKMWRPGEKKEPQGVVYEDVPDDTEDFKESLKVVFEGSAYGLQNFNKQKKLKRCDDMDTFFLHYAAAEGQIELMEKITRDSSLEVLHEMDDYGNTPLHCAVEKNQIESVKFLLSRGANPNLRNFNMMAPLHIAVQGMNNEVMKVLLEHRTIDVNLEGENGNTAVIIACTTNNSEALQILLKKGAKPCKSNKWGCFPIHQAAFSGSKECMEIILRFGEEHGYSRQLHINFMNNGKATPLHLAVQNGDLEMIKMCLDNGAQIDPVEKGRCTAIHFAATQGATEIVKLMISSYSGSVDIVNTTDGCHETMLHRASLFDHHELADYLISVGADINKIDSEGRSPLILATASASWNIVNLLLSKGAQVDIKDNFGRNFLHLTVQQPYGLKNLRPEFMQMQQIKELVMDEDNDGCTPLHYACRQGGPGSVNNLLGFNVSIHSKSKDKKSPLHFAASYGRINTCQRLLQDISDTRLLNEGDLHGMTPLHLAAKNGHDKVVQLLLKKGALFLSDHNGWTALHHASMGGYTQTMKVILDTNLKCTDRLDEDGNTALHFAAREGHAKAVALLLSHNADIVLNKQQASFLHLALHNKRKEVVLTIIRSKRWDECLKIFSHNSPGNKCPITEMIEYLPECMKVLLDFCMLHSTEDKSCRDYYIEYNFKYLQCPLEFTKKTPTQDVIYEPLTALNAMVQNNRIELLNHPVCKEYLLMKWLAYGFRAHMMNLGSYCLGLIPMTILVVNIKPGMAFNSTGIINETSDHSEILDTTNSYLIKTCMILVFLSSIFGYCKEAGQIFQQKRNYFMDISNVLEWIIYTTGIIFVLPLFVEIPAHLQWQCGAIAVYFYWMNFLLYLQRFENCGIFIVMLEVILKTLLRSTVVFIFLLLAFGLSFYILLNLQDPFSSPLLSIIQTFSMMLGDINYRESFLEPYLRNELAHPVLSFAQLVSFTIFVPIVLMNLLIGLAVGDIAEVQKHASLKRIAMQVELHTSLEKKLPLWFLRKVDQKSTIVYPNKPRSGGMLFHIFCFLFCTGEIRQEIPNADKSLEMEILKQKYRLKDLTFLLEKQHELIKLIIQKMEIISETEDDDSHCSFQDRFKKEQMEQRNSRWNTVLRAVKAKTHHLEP

## CC(=C\c1ccc(Cl)cc1)/C(C)=N/O [AP18]
PAR-2 receptor
  effect of antagonist on calcium response to the PAR-2 activating peptide: did not affect
[1]
  effect of antagonist on CSE-evoked IL-8 release: reduced
  effect of antagonist on IL-8 release induced by IL-1β or TNF-α: not affected
  effect of antagonist on acrolein-evoked IL-8 release: significantly reduced
TRPA1
  effect of antagonist on calcium response evoked by CNM, ACR or CSE: abolished
TRPA1; SAEC, NHLF, HBSMC
  effect of antagonist on calcium responses to CNM, ACR and CSE: prevented

## C=CC=O [Acrolein, acrolein]
[1]
  IL-8 release: concentration-dependent IL-8 release
[2]
  plasma protein extravasation (PPE) after instillation into the tracheal lumen: increased PPE
TRPA1; A549
  EC50: 7.3 µM
TRPA1; HBSMC
  EC50: 6.3 µM
TRPA1; IMR90
  EC50: 2.9 µM
TRPA1; NHLF
  EC50: 4.4 µM
TRPA1; SAEC
  EC50: 56.9 µM
[3]; 5 mM i.t., Trpa1-/- mice (C57BL/6)
  KC release in Trpa1-/- mice: completely absent
[3]; C57BL/6 mice
  KC in BAL 24 hours after intratracheal instillation: significantly increased

## O=C/C=C/c1ccccc1 [Cinnamaldehyde, cinnamaldehyde]
[1]
  IL-8 release: release IL-8
TRPA1; A549
  EC50: 10.9 µM
TRPA1; HBSMC
  EC50: 6.7 µM
TRPA1; IMR90
  EC50: 2.7 µM
TRPA1; NHLF
  EC50: 6.6 µM
TRPA1; SAEC
  EC50: 46.3 µM

## CC(C)c1ccc(NC(=O)Cn2cnc3c2c(=O)n(C)c(=O)n3C)cc1 [HC-030031]
PAR-2 receptor
  effect of antagonist on calcium response to the PAR-2 activating peptide: did not affect
[1]
  effect of antagonist on CSE-evoked IL-8 release: reduced
  effect of antagonist on IL-8 release induced by IL-1β or TNF-α: not affected
  effect of antagonist on acrolein-evoked IL-8 release: significantly reduced
[2]
  effect on acrolein (5 mM, i.t.)- and CSE (1 OD, i.t.)-evoked increase in PPE: prevent
TRPA1
  effect of antagonist on calcium response evoked by CNM, ACR or CSE: abolished
TRPA1; SAEC, NHLF, HBSMC
  effect of antagonist on calcium responses to CNM, ACR and CSE: prevented
[3]; C57BL/6 mice
  effect of pretreatment on KC release evoked by acrolein or CSE: significantly reduced

## FC(F)(F)c1cc(CO[C@H]2CCCN[C@H]2c2ccccc2)cc(C(F)(F)F)c1 [L-733,060]
[2]
  effect on acrolein (5 mM, i.t.)- and CSE (1 OD, i.t.)-evoked increase in PPE: prevent
  effect on SP (25 nM)- and capsaicin (100 µM)-evoked Evans blue dye extravasation (PPE): prevented
[3]; C57BL/6 mice
  effect of pretreatment on KC release evoked by acrolein or CSE: failed to reduce

## C=C(C)[C@]12C[C@@H](C)[C@@]34O[C@](Cc5ccccc5)(O[C@@H]1[C@@H]3C=C(COC(=O)Cc1ccc(O)c(OC)c1)C[C@]1(O)C(=O)C(C)=C[C@@H]41)O2 [RTX, resiniferatoxin]
[2]; RTX 50 µg/kg s.c., 7 days before, ACR 5 mM i.t.
  acrolein-induced PPE after desensitization: completely abolished
[3]; RTX 50 µg/kg s.c., 7 days before, ACR 5 mM i.t., C57BL/6 mice
  acrolein-induced increase in KC in BAL fluid after desensitization: remained unchanged

## COc1cc(CNC(=O)CCCC/C=C/C(C)C)ccc1O [capsaicin]
[2]
  plasma protein extravasation (PPE) after instillation into the tracheal lumen: increased PPE
TRPV1
  calcium response: failed to produce any visible calcium response
[3]; C57BL/6 mice
  KC in BAL 24 hours after intratracheal instillation: failed to increase

## Oc1cc2c(cc1O)CN(C(=S)NCCc1ccc(Cl)cc1)CCC2 [capsazepine]
[2]
  effect on SP (25 nM)- and capsaicin (100 µM)-evoked Evans blue dye extravasation (PPE): prevented

## substance P (RPKPQQFFGLM-NH2; ends and bridges not checked; UniProt P20366 58-68, looked up) [SP, neuropeptide tachykinin released from sensory nerve terminals]
[2]
  plasma protein extravasation (PPE) after instillation into the tracheal lumen: increased PPE
[3]; C57BL/6 mice
  KC in BAL 24 hours after intratracheal instillation: failed to increase
